One may read the solubility as the dissolved amount per volume that the medium holds. Usually EC50 stands for the concentration that produces a half-maximal response.

The text below walks through data of patent US20260176319A1, “PEPTIDE ANALOGS AND METHODS OF USING THE SAME” (Kallyope, Inc., priority 2024, published 2026).

In brackets after ≈: the same amount, converted by molar mass. Where two headings read alike, the source gives them in different places. Starred links: 1 amine or outer side, 2 acyl side, 3 side chain; linkers in the order of their positions; H or OH if unused. Non-standard residues stand in square brackets, D forms with d. Residues, ends and D or L forms follow the SMILES beside them. *: point of attachment. Trp(7-Me) = Cc1cccc2c(C[C@H](N)C(=O)O)c[nH]c12; C20 diacid = O=C(O)CCCCCCCCCCCCCCCCCCC(=O)*; γGlu = O=C(O)[C@H](CCC(=O)[*:2])N[*:1]; NMeH = CN[C@@H](Cc1c[nH]cn1)C(=O)O; Nle = CCCC[C@H](N)C(=O)O; β3hA = C[C@H](N)CC(=O)O; AEEA = NCCOCCOCC(=O)O; βAla = NCCC(=O)O

A short description of data set [1]: Pharmacokinetics after intravenous peptide administration in mice. The arrangement: species or system C57BL/6 mice. To be noted: in vivo. The procedure: GPR-10 and peptides were dosed IV at 2 mg/kg as a formulation of 0.4 mg/mL in […]+65% water (pH 6-7).
Data set [2] in a line: Food intake and body weight after subcutaneous administration in mice, 16 hours (Example A-2b). To be noted: male C57BL/6J mice, single subcutaneous dose, peptide 500 nmol/kg, high fat diet. The class given is in vivo. The source says: Male C57BL/6J mice, approximately 10 weeks old (Jackson Laboratory), were group housed in a 12-h light cycle room (6:00 AM on, 6:00 PM off) upon arrival and acclimated to the facility for a minimum of 1 week prior to the study. Animals were provided standard rodent chow (PicoLab Rodent Diet, 5053) ad libitum. Animals were single caged for a minimum of 3 days prior to the study. During the period prior to the study day, mice were exposed to one pellet of high fat diet (Research Diets D12492i) to avoid any effects of novelty in the study. On three separate days during this run-in period, mice were given one dose of phosphate-buffered saline (PBS; 5 mL/kg) by subcutaneous injection to acclimate them to the procedure. For baseline measures, pre-weighed meals of standard rodent chow were provided to each animal following acclimation dosing at 3:30 PM, and body weight was recorded. The next morning at 9:30 AM, food intake and body weight measurements were recorded at 16 hours following the presentation of the pre-weighed meal. These measurements and the resulting body weight changes were then used to assign mice to balanced cohorts. On the day of the study, mice were weighed and given a subcutaneous dose of either vehicle (PBS, 5 mL/kg; pH 5.0-8.5) or a peptide of the disclosure (500 nmol/kg; pH 5.0-8.5). Following dosing, a pre-weighed high fat diet was provided. Food intake and body weight measurements were taken at 16 hours following the provision of the pre-weighed high fat diet. […] Table 6 below describes the percent reduction in food intake and the percent body weight (BW) change with peptides as measured relative to the vehicle group.

Data set [3] can be described thus: physchem. The format is physicochemical. The settings on record: pH 8. The procedure: Solubility was measured in an appropriate buffer as follows. A known amount of compound, e.g., 20 mg, was placed in a vessel equipped with a stirring bar. A measured amount of buffer (e.g., 200-400 μL of 200 mM phosphate buffer) was added, and in some cases, additional surfactants, e.g., polysorbate 80 (PS80), polyethylene glycol (15)-hydroxystearate (Solutol® HS15), etc., were added. A measured amount of purified water (e.g., 1.6 mL) was added, and the pH was adjusted to the desired pH, e.g., pH 8, by addition of 0.5 N aqueous NaOH or 0.5 N aqueous HCl. The volume of added acid or base was recorded. The mixture was stirred at 300 rpm for 10 min. Additional purified water was added to reach a given volume, e.g., 4 mL, of solution. After stirring the sample at 300 rpm at room temperature for 1 h or 24 h, the appearance was observed and the pH measured.

For data set [4], the target named is T1, human GRP receptors (Homo sapiens, UniProt P30550).
T1 construct: host or cells: U2OS
The experiment in a line: IP1 GRPR activity: HTRF IP1-Gq assay in U2OS cells stably expressing human GRP receptors. The format is cell-based. The settings on record: 90 minutes incubation, read-out: hIP1 GRPR EC50. The procedure:
U2OS cells stably expressing human GRP receptors (DiscoverX, #93-0229C3) were cultured according to manufacturer's instructions. Cells were cultured to […], then collected using AccuTase (Innovative Cell Technologies, #AT104). Cells were washed and plated on a poly-D-lysine-coated 384-well plate (ThermoFisher, #A3890401) at a density of 2,500 cells/well in […] assay buffer (AssayComplete Cell Plating 5 Reagent, DiscoverX #93-0563R5), then incubated overnight at 37° C. and 5% C02. The following morning, a homogenous time-resolved fluorescence (HTRF) assay was performed in a 384-well plate format using the IP1-Gq assay kit (Cisbio, 62IPAPEB). Test compounds were made as a stock in DMSO, then serially diluted to generate 10-point dose response curves in IP1 stimulation buffer. Five microliters of the prepared compounds were then added to the plate containing cells and assay buffer in duplicate, and the cells were incubated at 37° C. and 5% CO2 for 90 minutes. Following compound incubation, […] of IP1 lysis/detection buffer (prepared according to manufacturer's instructions) was added to each well, and the plates were incubated at room temperature for 1 hour. HTRF signals were measured using a plate reader (ClarioSTAR), calculating the ratio between emissions at 665 nm and 620 nm (HTRF ratio). HTRF ratio for positive (Max, […]; SEQ ID NO. 45) and negative (Min, DMSO) controls were used to normalize HTRF data and generate values for % activity. EC50 and Max activity values were determined using a standard 4-parameter fit using GraphPad Prism.

Where [5] appears, read: mouse, C57BL/6 mice, IV 2 mg/kg, formulation of 0.4 mg/mL, read-out: CL.
The mark [6] stands for this setting: mouse, C57BL/6 mice, IV 2 mg/kg, formulation of 0.4 mg/mL, read-out: T1/2 (converted).

T1 sequence (P30550 whole entry): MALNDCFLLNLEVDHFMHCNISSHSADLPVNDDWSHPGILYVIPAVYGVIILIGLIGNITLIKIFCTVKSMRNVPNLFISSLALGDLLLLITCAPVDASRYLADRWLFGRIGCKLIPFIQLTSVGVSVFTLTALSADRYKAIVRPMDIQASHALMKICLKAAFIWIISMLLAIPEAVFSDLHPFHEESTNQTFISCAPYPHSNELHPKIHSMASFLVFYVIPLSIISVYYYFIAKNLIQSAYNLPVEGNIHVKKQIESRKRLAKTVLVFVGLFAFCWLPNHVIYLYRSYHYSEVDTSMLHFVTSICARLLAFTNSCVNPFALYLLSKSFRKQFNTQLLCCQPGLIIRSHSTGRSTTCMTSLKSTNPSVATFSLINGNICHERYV

In the case of `CCCC[C@H](NC(=O)[C@H](CC(C)C)NC(=O)[C@H](Cc1c[nH]cn1)NC(=O)CCNC(=O)[C@@H](NC(=O)[C@H](C)NC(=O)[C@H](Cc1c[nH]c2ccccc12)NC(=O)[C@H](Cc1c[nH]cn1)NC(=O)[C@H](CCC(N)=O)NC(=O)CNC(=O)COCCOCCNC(=O)COCCOCCNC(=O)CC[C@H](NC(=O)CCCCCCCCCCCCCCCCCCC(=O)O)C(=O)O)C(C)C)C(N)=O` [Peptide 241, Eicosanedioyl-γGlu-OEG-OEG-Gly-Gln-His-Trp-Ala-Val-β-Ala-His-Leu-Nle-NH2] ({C20 diacid-γGlu-AEEA-AEEA}-GQHWAV[βAla]HL[Nle]-NH2), the clearance in data set [1] (setting [5]) was 0.23 mL/min/kg. For the same compound, the half-life in data set [1] (setting [6]) is 7 h. In data set [2], the “% Body Weight Change at 16 hours (compared with vehicle)” value (from here on “% Body Weight Change at 16 hours”) is recorded as −10% and the “% Reduction in Cumulative Food Intake over 16 hours (compared with vehicle)” value (from here on “% Reduction in Cumulative Food Intake”) turned out to be 74%.
For the compound `CCCC[C@H](NC(=O)[C@H](CC(C)C)NC(=O)[C@H](Cc1c[nH]cn1)NC(=O)CCNC(=O)[C@@H](NC(=O)[C@H](C)NC(=O)[C@H](Cc1c[nH]c2c(C)cccc12)NC(=O)[C@H](Cc1c[nH]cn1)NC(=O)[C@H](CCCNC(=N)N)NC(=O)CNC(=O)COCCOCCNC(=O)COCCOCCNC(=O)CC[C@H](NC(=O)CCCCCCCCCCCCCCCCCCC(=O)O)C(=O)O)C(C)C)C(N)=O` [Peptide 242, Eicosanedioyl-γGlu-OEG-OEG-Gly-Arg-His-7MethylTrp-Ala-Val-β-Ala-His-Leu-Nle-NH2] ({C20 diacid-γGlu-AEEA-AEEA}-GRH[Trp(7-Me)]AV[βAla]HL[Nle]-NH2), in data set [2], the “% Body Weight Change at 16 hours” value is given as −9% and the “% Reduction in Cumulative Food Intake” value is 55%.
Take `CCCC[C@H](NC(=O)[C@H](CC(C)C)NC(=O)[C@H](Cc1c[nH]cn1)NC(=O)C[C@H](C)NC(=O)[C@@H](NC(=O)[C@H](C)NC(=O)[C@H](Cc1c[nH]c2c(C)cccc12)NC(=O)[C@H](Cc1c[nH]cn1)NC(=O)[C@H](CCC(=O)O)NC(=O)CNC(=O)COCCOCCNC(=O)COCCOCCNC(=O)CC[C@H](NC(=O)CC[C@H](NC(=O)CCCCCCCCCCCCCCCCCCC(=O)O)C(=O)O)C(=O)O)C(C)C)C(N)=O` [Peptide 247, Eicosanedioyl-γGlu-γGlu-OEG-OEG-Gly-Glu-His-7MeTrp-Ala-Val-BABA-His-Leu-Nle-NH2] ({C20 diacid-γGlu-γGlu-AEEA-AEEA}-GEH[Trp(7-Me)]AV[β3hA]HL[Nle]-NH2): in data set [1] (C57BL/6, mouse, iv, 2 mg/kg), the clearance was found to be 0.18 mL/min/kg and the half-life is 7.5 h. The compound also had a solubility at 24 h in data set [3] of 4200 µg/mL (≈ 2070 µM). Further, in data set [4], the EC50 turned out to be 1.8 nM. In addition, in data set [2], the “% Body Weight Change at 16 hours” value is −11% and the “% Reduction in Cumulative Food Intake” value is 65%.
As for `CCCC[C@H](NC(=O)[C@H](CC(C)C)NC(=O)[C@H](Cc1c[nH]cn1)NC(=O)CCNC(=O)[C@@H](NC(=O)[C@H](C)NC(=O)[C@H](Cc1c[nH]c2c(C)cccc12)NC(=O)[C@H](Cc1c[nH]cn1)NC(=O)[C@H](CCC(=O)O)NC(=O)[C@@H](CO)NC(=O)[C@H](CCC(=O)O)NC(=O)COCCOCCNC(=O)COCCOCCNC(=O)CC[C@H](NC(=O)CC[C@H](NC(=O)CCCCCCCCCCCCCCCCCCC(=O)O)C(=O)O)C(=O)O)C(C)C)C(N)=O` [Peptide 248, Eicosanedioyl-γGlu-γGlu-OEG-OEG-Glu-D-Ser-Glu-His-7MeTrp-Ala-Val-β-Ala-His-Leu-Nle-NH2] ({C20 diacid-γGlu-γGlu-AEEA-AEEA}-E[dS]EH[Trp(7-Me)]AV[βAla]HL[Nle]-NH2), the clearance in data set [1] (setting [5]) stood at 0.12 mL/min/kg. For the same compound, the half-life in data set [1] (setting [6]) was 9.7 h. In addition, in data set [2], the “% Body Weight Change at 16 hours” value is listed as −9% and the “% Reduction in Cumulative Food Intake” value was found to be 54%.
Take `CCCC[C@H](NC(=O)[C@H](CC(C)C)NC(=O)[C@H](Cc1c[nH]cn1)N(C)C(=O)C[C@H](C)NC(=O)[C@@H](NC(=O)[C@H](C)NC(=O)[C@H](Cc1c[nH]c2c(C)cccc12)NC(=O)[C@H](Cc1c[nH]cn1)NC(=O)[C@H](CCC(=O)O)NC(=O)[C@H](CO)NC(=O)COCCOCCNC(=O)COCCOCCNC(=O)CC[C@H](NC(=O)CC[C@H](NC(=O)CCCCCCCCCCCCCCCCCCC(=O)O)C(=O)O)C(=O)O)C(C)C)C(N)=O` [Peptide 277, Eicosanedioyl-γGlu-γGlu-OEG-OEG-Ser-Glu-His-7MeTrp-Ala-Val-BABA-NMeHis-Leu-Nle-NH2] ({C20 diacid-γGlu-γGlu-AEEA-AEEA}-SEH[Trp(7-Me)]AV[β3hA][NMeH]L[Nle]-NH2): in data set [2], the “% Body Weight Change at 16 hours” value is reported as −12% and the “% Reduction in Cumulative Food Intake” value is on record as 69%.
Regarding `CCCC[C@H](NC(=O)[C@H](CC(C)C)NC(=O)[C@H](Cc1c[nH]cn1)N(C)C(=O)C[C@H](C)NC(=O)[C@@H](NC(=O)[C@H](C)NC(=O)[C@H](Cc1c[nH]c2c(C)cccc12)NC(=O)[C@H](Cc1c[nH]cn1)NC(=O)[C@H](CC(=O)O)NC(=O)CNC(=O)COCCOCCNC(=O)COCCOCCNC(=O)CC[C@H](NC(=O)CC[C@H](NC(=O)CCCCCCCCCCCCCCCCCCC(=O)O)C(=O)O)C(=O)O)C(C)C)C(N)=O` [Peptide 278, Eicosanedioyl-γGlu-γGlu-OEG-OEG-Gly-Asp-His-7MeTrp-Ala-Val-BABA-NMeHis-Leu-Nle-NH2] ({C20 diacid-γGlu-γGlu-AEEA-AEEA}-GDH[Trp(7-Me)]AV[β3hA][NMeH]L[Nle]-NH2), the EC50 in data set [4] is 10.8 nM. For the same compound, in data set [2], the “% Body Weight Change at 16 hours” value is −12% and the “% Reduction in Cumulative Food Intake” value is 63%.
